Laboratory results as given in article PMC2685802, “Daptomycin in experimental murine pneumococcal meningitis” (BMC Infectious Diseases, 2009).
Like-named read-outs stand apart in the source and are kept apart here.

Columns and labels:
[1] = system: Streptococcus pneumoniae A 66.1 serotype 3 (Xen 10); format: in vivo, mice
Procedure: This study was approved by the Institutional Animal Care and Use Committee of the Mayo Clinic, Rochester, Minnesota. Ninety-six 25–30 gram immunocompetent hairless mice were divided into three treatment groups. Sixteen hours prior to treatment, mice were anesthetized using ketamine and xylazine (45 mg/kg and 5 mg/kg I.M., respectively) and 3 × 10^4 cfu of bacteria in a 20 μl volume were inoculated into the cisterna magna. The time of treatment was selected as the latest time point at which antimicrobial treatment could realistically lead to recovery. […] At 20 hours post infection an additional dose of vancomycin 50 mg/kg was given to the vancomycin-treated animals. Mice not receiving vancomycin at 20 hours were injected with an equal volume of saline. At 16, 20, and 24 hours post infection, 8, 40 and 48 animals, respectively were re anesthetized and cerebrospinal fluid (CSF) was collected by way of puncture from the cisterna magna (using a 28 G 1/2 needle 0.3 × 13 mm from BD Microlance). CSF white-blood cell count was determined and bacterial burden was quantified in CSF by plating serial 10-fold dilutions in sterile isotonic saline onto blood agar plates. Results were expressed as log10 cfu/ml; the detection limit was 20 cfu/ml of CSF. Following collection of CSF, animals were euthanized with a lethal dose of pentobarbital, their brains collected and placed in 10% neutral buffered formalin.
Bacterial concentrations between treatment groups at each time point were compared using the student t-test. Correlation analysis between log10 bacterial CSF titers and log10 photons/second was calculated using SPSS statistical software. For inflammation, neuronal necrosis, and apoptosis scores, statistical analysis included a nonparametric Kruskal-Wallis test followed by a Dunn's test comparing all treatment groups using a confidence level of 95%.

[2] = Serum antibiotic concentration in mice after intraperitoneal dose (microbiological assay); format: in vivo; conditions: single dose, detection limit 0.5 μg/ml
Procedure: The 30 minute serum concentration of vancomycin or daptomycin in 25–30 gram immunocompetent hairless mice (Charles River Laboratories, Wilmington, MA) was determined following intraperitoneal injection of 40, 50 and 60 mg/kg vancomycin or 20, 30, 40 and 50 mg/kg daptomycin, respectively. Pharmacokinetic profiles were determined by injecting 50 mg/kg vancomycin or 25 mg/kg daptomycin intraperitoneally and obtaining serum samples 30, 60, 120, 180 and 240 minutes post injection. Drug activity was measured using a microbiological assay technique. Standard curves for serum drug level determination were performed by making drug dilutions in pooled mouse serum (Innovative Research, Incorporated, Southfield, MI). The reporter bacteria for the vancomycin and daptomycin bioassays were Bacillus subtilis and Micrococcus luteus, respectively. Zones of growth inhibition were measured to the nearest millimeter. The detection limit for both drugs was 0.5 μg/ml.

[3] = system: penicillin-resistant pneumococcal strains; conditions: cited from earlier work
Excerpt: Four studies of daptomycin treatment of experimental meningitis have been reported. […] Similarly, Gerber et al. reported bactericidal activity in a rabbit model of Staphyloco ...

[4] = system: S. pneumoniae Xen10; experiment: Time kill assay; format: cell-based, Streptococcus pneumoniae; conditions: daptomycin 1 μg/ml or vancomycin 2 μg/ml alone and with dexamethasone 100 μg/ml
Excerpt: Figure 1 Time kill assay. […] DP, daptomycin; VN, vancomycin; DX, dexamethasone.

[5] = human, 6 mg/kg q.d. intravenously (highest FDA-approved dose); no reference given; cited from earlier work
[6] = vancomycin 50 mg/kg intraperitoneally, bioassay with Bacillus subtilis

**Q.** For `CCCCCCCCCC(=O)N[C@@H](Cc1c[nH]c2ccccc12)C(=O)N[C@H](CC(N)=O)C(=O)N[C@@H](CC(=O)O)C(=O)N[C@@H]1C(=O)NCC(=O)N[C@@H](CCCN)C(=O)N[C@@H](CC(=O)O)C(=O)N[C@H](C)C(=O)N[C@@H](CC(=O)O)C(=O)NCC(=O)N[C@H](CO)C(=O)N[C@@H]([C@H](C)CC(=O)O)C(=O)N[C@@H](CC(=O)c2ccccc2N)C(=O)O[C@@H]1C` [daptomycin], which “CSF titers at 24 hours post infection” value ([1]; mouse, in vivo) is on record?
**A.** 3.9 log10 cfu/ml

**Q.** What about the “drop of bacterial titers four hours after a single treatment” value ([1]; mouse, in vivo) of the same compound?
**A.** 1.33 log10

**Q.** And the level at 4 h ([2]; hairless (immunocompetent), mouse, serum, ip, daptomycin 25 mg/kg intraperitoneally, bioassay with Micrococcus luteus)?
**A.** 16 µg/mL

**Q.** What about the level at 0.5 h ([2]; hairless (immunocompetent), mouse, serum, ip, daptomycin 25 mg/kg intraperitoneally, bioassay with Micrococcus luteus, read-out: serum concentration at 30 minutes) of the same compound?
**A.** 127 µg/mL

**Q.** And the “release of [3H]choline (marker of cell wall lysis)” value ([3]; compared with ceftriaxone treatment)?
**A.** negligible

**Q.** What about the “penetration across inflamed meninges” value ([3]; rabbit, in vivo) of the same compound?
**A.** 6%

**Q.** What about the “in vitro bactericidal activity, effect of dexamethasone” value [4] of the same compound?
**A.** not affected

**Q.** And the “serum Cmax” value [5]?
**A.** 90 to 100 µg/mL

**Q.** With `CN[C@H](CC(C)C)C(=O)N[C@H]1C(=O)N[C@@H](CC(N)=O)C(=O)N[C@H]2C(=O)N[C@H]3C(=O)N[C@H](C(=O)N[C@H](C(=O)O)c4cc(O)cc(O)c4-c4cc3ccc4O)[C@H](O)c3ccc(c(Cl)c3)Oc3cc2cc(c3O[C@@H]2O[C@H](CO)[C@@H](O)[C@H](O)[C@H]2O[C@H]2C[C@](C)(N)[C@H](O)[C@H](C)O2)Oc2ccc(cc2Cl)[C@H]1O` [vancomycin] as the compound, how does the “drop of bacterial titers four hours after a single treatment” value ([1]; CSF, mice, accompanied by 1 mg/kg of dexamethasone, daptomycin 25 mg/kg or vancomycin 50 mg/kg i.p.) read?
**A.** 0.43 log10

**Q.** And the “CSF titers at 24 hours post infection” value ([1]; mice, vancomycin 50 mg/kg at 16 and 20 hours or daptomycin 25 mg/kg at 16 hours, i.p., with dexamethasone 1 mg/kg every 6 hours)?
**A.** 3.4 log10 cfu/ml

**Q.** What about the “serum level at 30 minutes” value [2, 6] of the same compound?
**A.** 55 µg/mL

**Q.** And the “serum level at 3 hours” value [2, 6]?
**A.** < 0.5 µg/mL

**Q.** And the “in vitro bactericidal activity, effect of dexamethasone” value [4]?
**A.** not affected
